According to ChEMBL document CHEMBL5696442, “Discovery of type II inhibitors of TGFβ-activated kinase 1 (TAK1) and mitogen-activated protein kinase kinase kinase kinase 2 (MAP4K2)” (J Med Chem, 2015):
The source made the active and inactive calls. The rule behind the calls is not given here.

Assays:
[1] = biological target: Fibroblast growth factor receptor 3 (Homo sapiens) (UniProt P22607); assay: Inhibition of FGFR3 (unknown origin) at 10 uM by Ambit Kinomescan binding assay relative to control
Chain of Fibroblast growth factor receptor 3 (Homo sapiens) (P22607 23-806 limits assumed): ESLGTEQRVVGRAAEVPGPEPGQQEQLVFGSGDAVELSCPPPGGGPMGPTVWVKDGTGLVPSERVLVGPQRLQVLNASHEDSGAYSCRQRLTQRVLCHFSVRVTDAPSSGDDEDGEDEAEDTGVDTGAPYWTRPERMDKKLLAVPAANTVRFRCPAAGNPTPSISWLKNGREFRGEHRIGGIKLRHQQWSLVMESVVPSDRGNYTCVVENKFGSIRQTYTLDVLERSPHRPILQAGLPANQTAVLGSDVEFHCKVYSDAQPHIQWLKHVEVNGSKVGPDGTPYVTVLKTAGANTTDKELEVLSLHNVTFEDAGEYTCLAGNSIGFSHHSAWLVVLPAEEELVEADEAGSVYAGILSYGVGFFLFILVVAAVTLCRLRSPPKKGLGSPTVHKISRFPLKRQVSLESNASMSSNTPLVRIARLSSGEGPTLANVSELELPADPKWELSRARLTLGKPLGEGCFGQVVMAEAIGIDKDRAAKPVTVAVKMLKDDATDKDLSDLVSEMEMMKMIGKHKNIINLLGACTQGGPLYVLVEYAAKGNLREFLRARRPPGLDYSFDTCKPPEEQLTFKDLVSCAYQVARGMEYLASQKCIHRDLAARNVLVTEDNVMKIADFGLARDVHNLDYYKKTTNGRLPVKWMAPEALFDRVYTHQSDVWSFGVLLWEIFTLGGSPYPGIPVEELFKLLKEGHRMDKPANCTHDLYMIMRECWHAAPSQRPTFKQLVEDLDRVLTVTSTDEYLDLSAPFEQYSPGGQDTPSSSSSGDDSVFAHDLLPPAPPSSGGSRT

[2] = biological target: Cyclin-dependent kinase 11B (Homo sapiens) (UniProt P21127); assay: Inhibition of CDC2L1 (unknown origin) at 10 uM by Ambit Kinomescan binding assay relative to control; values are per cent of control
[3] = biological target: Vascular endothelial growth factor receptor 3 (Homo sapiens) (UniProt P35916); assay: Inhibition of FLT4 (unknown origin) at 10 uM by Ambit Kinomescan binding assay relative to control
[4] = biological target: T1, Serine/threonine-protein kinase Chk1 (Homo sapiens) (UniProt O14757); assay: Inhibition of CHK1 Lys2 labeling site harbouring DIKPENLLLDERDNLK in human A-375 cells at 0.5 uM by KiNativ Profiling analysis relative to control; format: cell-based
T1 sequence (whole entry): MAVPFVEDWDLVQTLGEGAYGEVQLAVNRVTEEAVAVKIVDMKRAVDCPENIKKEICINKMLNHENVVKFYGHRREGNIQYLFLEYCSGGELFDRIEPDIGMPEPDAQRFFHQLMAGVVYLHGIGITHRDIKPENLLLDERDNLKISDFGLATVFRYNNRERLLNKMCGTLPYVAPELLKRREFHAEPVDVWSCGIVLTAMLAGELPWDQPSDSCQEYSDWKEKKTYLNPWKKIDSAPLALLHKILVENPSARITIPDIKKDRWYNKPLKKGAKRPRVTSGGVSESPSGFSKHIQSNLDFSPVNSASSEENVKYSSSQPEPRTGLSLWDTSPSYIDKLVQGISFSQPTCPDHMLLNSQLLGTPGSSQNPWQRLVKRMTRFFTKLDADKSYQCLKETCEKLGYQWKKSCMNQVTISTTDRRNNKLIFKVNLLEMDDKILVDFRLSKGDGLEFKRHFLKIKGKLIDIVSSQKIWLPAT

[5] = biological target: T2, Phosphatidylinositol 5-phosphate 4-kinase type-2 gamma (Homo sapiens) (UniProt Q8TBX8); assay: Inhibition of PIP4K2C ATP labeling site harbouring TLVIKEVSSEDIADMHSNLSNYHQYIVK in human A-375 cells at 0.05 uM by KiNativ Profiling analysis relative to control; format: cell-based
T2 sequence (whole entry): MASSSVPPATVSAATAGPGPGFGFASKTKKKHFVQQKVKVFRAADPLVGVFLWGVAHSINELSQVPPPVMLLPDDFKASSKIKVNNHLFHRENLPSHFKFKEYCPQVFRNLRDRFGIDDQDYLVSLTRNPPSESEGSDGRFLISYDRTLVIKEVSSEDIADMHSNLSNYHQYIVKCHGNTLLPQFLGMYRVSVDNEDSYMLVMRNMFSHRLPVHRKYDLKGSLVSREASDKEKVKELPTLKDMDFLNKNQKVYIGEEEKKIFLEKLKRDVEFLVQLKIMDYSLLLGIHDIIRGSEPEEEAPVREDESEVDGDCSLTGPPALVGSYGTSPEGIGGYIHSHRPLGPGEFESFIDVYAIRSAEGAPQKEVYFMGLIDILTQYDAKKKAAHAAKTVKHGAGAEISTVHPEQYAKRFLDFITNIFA

[6] = biological target: Dual specificity protein kinase CLK1 (Homo sapiens) (UniProt P49759); assay: Inhibition of CLK1 (unknown origin) at 10 uM by Ambit Kinomescan binding assay
Chain of Dual specificity protein kinase CLK1 (Homo sapiens) (P49759 whole entry, looked up): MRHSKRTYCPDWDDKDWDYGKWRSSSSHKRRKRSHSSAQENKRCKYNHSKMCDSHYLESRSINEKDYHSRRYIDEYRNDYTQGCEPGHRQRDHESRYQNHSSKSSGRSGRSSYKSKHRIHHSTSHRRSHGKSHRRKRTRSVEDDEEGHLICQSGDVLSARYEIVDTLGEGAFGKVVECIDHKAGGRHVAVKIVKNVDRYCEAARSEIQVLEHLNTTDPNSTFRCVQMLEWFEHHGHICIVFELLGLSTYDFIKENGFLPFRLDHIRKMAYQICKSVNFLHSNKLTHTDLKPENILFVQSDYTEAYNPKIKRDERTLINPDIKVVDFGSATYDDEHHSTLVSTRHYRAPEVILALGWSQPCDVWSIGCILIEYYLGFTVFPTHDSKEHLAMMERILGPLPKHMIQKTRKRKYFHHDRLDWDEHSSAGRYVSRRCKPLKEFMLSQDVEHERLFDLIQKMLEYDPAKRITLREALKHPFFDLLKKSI

[7] = biological target: Serine/threonine-protein kinase PAK 1 (Homo sapiens) (UniProt Q13153); assay: Inhibition of PAK1 (unknown origin) at 10 uM by Ambit Kinomescan binding assay
Chain of Serine/threonine-protein kinase PAK 1 (Homo sapiens) (Q13153 whole entry, looked up, canonical isoform): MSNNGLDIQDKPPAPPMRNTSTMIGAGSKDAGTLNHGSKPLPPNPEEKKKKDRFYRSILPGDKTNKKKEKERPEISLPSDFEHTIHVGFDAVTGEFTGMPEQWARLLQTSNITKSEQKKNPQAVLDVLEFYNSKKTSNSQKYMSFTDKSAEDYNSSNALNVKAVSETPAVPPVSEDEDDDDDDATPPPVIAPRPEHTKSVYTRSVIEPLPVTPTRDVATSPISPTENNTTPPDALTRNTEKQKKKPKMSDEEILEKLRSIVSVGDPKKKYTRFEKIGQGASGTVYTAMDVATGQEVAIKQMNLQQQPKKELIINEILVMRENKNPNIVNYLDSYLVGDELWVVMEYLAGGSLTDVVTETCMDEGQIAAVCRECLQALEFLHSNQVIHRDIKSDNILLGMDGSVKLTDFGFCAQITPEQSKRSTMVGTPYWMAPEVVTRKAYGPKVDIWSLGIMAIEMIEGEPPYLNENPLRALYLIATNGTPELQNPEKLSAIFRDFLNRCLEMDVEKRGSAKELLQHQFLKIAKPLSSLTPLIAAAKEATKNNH

[8] = biological target: Phosphatidylinositol 4,5-bisphosphate 3-kinase catalytic subunit beta isoform (Homo sapiens) (UniProt P42338); assay: Inhibition of PIK3CB ATP labeling site in human Huh-7 cells at 1 uM by KiNativ Profiling analysis relative to control; format: cell-based
[9] = biological target: Proto-oncogene tyrosine-protein kinase receptor Ret (Homo sapiens) (UniProt P07949); assay: Inhibition of RET (unknown origin) at 10 uM by Ambit Kinomescan binding assay relative to control; values are per cent of control
Chain of Proto-oncogene tyrosine-protein kinase receptor Ret (Homo sapiens) (P07949 whole entry): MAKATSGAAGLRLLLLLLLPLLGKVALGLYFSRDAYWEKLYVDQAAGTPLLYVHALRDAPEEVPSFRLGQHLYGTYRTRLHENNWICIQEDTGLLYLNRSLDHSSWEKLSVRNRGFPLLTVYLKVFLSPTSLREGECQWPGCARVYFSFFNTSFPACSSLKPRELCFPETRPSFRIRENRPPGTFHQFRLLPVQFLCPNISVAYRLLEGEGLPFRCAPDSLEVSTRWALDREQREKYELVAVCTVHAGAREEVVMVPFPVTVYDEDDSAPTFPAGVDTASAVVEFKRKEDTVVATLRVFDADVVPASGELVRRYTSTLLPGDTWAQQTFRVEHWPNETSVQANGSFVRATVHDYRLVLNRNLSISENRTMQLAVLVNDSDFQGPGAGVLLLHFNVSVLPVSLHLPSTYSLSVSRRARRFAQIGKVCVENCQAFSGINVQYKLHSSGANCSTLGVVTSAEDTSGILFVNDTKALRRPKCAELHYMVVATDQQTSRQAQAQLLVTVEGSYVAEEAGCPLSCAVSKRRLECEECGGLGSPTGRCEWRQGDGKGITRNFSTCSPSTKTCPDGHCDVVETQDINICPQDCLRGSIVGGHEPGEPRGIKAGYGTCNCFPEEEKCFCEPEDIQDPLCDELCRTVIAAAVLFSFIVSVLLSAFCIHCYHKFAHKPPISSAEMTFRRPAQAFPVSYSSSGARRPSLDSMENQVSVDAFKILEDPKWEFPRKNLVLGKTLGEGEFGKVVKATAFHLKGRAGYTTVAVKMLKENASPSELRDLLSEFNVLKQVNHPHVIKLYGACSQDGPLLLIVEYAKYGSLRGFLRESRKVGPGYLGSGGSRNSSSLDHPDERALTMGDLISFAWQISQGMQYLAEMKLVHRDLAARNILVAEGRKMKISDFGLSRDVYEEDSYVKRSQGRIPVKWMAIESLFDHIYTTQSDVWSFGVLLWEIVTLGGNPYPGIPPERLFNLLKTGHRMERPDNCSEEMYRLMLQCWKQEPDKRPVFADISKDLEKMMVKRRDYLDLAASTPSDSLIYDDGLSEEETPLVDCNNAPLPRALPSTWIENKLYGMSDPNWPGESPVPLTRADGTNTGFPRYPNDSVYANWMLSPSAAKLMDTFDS

[10] = biological target: Ephrin type-B receptor 1 (Homo sapiens) (UniProt P54762); assay: Inhibition of EPHB1 (unknown origin) at 10 uM by Ambit Kinomescan binding assay
Chain of Ephrin type-B receptor 1 (Homo sapiens) (P54762 whole entry): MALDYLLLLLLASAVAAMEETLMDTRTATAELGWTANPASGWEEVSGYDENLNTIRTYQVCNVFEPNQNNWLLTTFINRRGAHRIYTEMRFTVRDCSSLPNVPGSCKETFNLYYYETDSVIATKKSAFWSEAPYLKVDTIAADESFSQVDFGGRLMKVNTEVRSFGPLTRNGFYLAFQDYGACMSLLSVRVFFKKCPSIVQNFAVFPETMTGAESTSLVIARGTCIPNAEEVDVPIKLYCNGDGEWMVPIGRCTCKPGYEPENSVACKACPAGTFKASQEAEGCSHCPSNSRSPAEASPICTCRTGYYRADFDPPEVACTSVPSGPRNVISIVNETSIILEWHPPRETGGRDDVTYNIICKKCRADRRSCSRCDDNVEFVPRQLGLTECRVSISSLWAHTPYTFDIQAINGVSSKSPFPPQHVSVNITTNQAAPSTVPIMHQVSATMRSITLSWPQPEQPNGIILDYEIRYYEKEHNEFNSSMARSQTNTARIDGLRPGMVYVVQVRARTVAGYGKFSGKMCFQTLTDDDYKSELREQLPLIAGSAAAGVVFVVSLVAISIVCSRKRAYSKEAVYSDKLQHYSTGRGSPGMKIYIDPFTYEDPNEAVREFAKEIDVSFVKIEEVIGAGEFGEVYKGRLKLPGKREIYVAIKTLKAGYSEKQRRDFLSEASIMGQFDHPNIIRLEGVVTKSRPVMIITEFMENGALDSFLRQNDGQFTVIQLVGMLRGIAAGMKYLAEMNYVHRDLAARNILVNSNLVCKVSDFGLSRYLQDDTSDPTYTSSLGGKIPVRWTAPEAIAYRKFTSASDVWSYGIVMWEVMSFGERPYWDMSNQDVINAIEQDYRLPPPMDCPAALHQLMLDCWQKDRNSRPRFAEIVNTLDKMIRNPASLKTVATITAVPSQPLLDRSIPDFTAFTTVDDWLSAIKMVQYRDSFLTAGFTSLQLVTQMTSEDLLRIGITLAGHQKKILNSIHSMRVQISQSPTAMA

[11] = biological target: Phosphatidylinositol 4-kinase beta (Homo sapiens) (UniProt Q9UBF8); assay: Inhibition of PI4KB ATP labeling site harbouring VPHTQAVVLNSKDKAPYLIYVEVLECENFDTTSVPARIPENR in human Huh-7 cell lysate at 1 uM by KiNativ Profiling analysis relative to control; format: subcellular
Chain of Phosphatidylinositol 4-kinase beta (Homo sapiens) (Q9UBF8 2-816 limits assumed): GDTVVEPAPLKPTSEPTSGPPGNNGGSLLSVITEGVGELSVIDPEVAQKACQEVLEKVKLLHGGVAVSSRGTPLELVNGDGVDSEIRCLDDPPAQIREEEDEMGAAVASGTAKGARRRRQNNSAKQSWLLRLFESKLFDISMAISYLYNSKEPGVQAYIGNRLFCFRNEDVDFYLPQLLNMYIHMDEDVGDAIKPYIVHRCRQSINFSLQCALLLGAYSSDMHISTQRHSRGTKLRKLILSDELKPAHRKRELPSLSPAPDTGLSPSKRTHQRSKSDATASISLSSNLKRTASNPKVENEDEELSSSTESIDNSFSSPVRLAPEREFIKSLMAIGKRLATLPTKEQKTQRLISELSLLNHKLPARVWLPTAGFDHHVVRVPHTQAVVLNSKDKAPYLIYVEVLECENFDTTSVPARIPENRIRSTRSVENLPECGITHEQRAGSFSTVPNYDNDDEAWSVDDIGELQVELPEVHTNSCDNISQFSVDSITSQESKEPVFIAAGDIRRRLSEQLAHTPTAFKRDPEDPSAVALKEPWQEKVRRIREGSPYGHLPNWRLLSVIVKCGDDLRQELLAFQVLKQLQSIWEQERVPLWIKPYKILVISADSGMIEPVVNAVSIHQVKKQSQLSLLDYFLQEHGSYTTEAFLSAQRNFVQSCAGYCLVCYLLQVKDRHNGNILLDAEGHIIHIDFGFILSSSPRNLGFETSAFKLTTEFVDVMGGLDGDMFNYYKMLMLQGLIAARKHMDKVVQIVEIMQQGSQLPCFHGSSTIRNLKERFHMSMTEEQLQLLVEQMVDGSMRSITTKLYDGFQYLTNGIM

[12] = Inhibition of KHS1 Lys1 labeling site in human Huh-7 cell lysate at 1 uM by KiNativ Profiling analysis relative to control; settings: condition cancer
[13] = biological target: T3, Aurora kinase A (Homo sapiens) (UniProt O14965); assay: Inhibition of AurA Lys2 labeling site in human Huh-7 cell lysate at 1 uM by KiNativ Profiling analysis relative to control; format: subcellular
T3 sequence (whole entry): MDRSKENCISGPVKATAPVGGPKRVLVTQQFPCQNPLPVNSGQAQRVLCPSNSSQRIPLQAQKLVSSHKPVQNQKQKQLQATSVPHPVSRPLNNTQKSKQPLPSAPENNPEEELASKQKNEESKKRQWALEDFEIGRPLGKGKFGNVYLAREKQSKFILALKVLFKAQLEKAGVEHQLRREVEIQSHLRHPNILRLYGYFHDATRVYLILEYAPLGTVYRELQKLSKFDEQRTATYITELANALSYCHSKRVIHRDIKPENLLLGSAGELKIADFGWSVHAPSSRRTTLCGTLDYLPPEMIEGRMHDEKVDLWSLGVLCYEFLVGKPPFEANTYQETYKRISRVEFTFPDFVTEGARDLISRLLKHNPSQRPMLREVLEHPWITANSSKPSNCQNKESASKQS

[14] = biological target: T4, Dual specificity mitogen-activated protein kinase kinase 4 (Homo sapiens) (UniProt P45985); assay: Inhibition of MEK4 (unknown origin) at 1 uM by Ambit Kinomescan binding assay relative to control; values are per cent of control
T4 sequence (whole entry): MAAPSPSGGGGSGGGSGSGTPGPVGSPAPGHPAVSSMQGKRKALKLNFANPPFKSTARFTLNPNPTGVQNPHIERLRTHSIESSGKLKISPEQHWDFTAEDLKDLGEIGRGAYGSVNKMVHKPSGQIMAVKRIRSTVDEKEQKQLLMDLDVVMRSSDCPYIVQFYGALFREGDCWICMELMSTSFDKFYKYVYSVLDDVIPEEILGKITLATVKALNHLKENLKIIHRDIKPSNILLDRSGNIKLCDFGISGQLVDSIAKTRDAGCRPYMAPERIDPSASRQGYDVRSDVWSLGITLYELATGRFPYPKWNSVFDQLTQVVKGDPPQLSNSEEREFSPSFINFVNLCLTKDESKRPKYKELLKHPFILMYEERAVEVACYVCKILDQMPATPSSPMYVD

## CCN1CCN(Cc2ccc(NC(=O)c3ccc(C)c(Oc4ccnc5[nH]ccc45)c3)cc2C(F)(F)F)CC1
[1]
  inhibition: 9.4%
[2]
  percent of control: 0.35%
[3]
  inhibition: 0.2%
[4]
  inhibition: 41.1%
[5]
  inhibition: -1.1%
[6]
  inhibition: inactive
[7]
  inhibition: inactive
[8]
  inhibition: inactive
[9]
  residual activity: 0%
[10]
  inhibition: inactive

## CNc1cc(Oc2cc(C(=O)Nc3cc(N4CCN(C)CC4)cc(C(F)(F)F)c3)ccc2C)ncn1
[11]
  inhibition: 14.7%
[12]
  inhibition at 1 µM: -10.2%
[13]
  inhibition: 6.6%

## CCN1CCN(Cc2ccc(NC(=O)c3ccc(C)c(/C=C/c4cnc5[nH]ccc5c4OC)c3)cc2C(F)(F)F)CC1
[14]
  residual activity: 100%
